Where a name gives a salt, the structure may show the parent alone.
What was measured:
[1] = biological target: T1, ROCK 2 (Homo sapiens, UniProt O75116); assay: Rho kinase assay (IMAP ROCK-II kit, fluorescence polarization); type: biochemical; settings: substrate 200 nM, ATP 10 μM, 60 min at 23° C.
T1 construct: purchased Molecular Devices, Sunnyvale, Calif
Description: (§1) The rho kinase assays were performed using a Biomek 2000 Robotic Workstation (Beckman Instruments, Palo Alto, Calif.) in a 96-well plate format. The assay was performed utilizing the IMAP ROCK-I and ROCK-II kits (Molecular Devices, Sunnyvale, Calif.) as follows. […] The substrate, enzyme, and ATP dilutions were made with the reaction buffer provided by the vendor. Test compounds were diluted in 10:10 DMSO-ethanol (vol/vol). For the actual assay, the various components were added into black, clear bottom, 96-well plates (Costar, Corning, N.Y.) in a final volume of 20μl per well. After the enzyme reaction (60 min at 23° C.), 60 μl of the binding solution was added per well and incubated for an additional 30 minutes in the dark at 23° C. Fluorescence polarization of the reaction mixtures was then measured on the Analyst™ HT instrument (Molecular Devices, Sunnyvale, Calif.).

[2] = test system: lasered (hypertensive) eyes of conscious cynomolgus monkeys; assay: Acute IOP response in lasered (hypertensive) eyes of conscious cynomolgus monkeys; type: in vivo; settings: 30 ug, one 30 μL aliquot topical to right eye
Description: Intraocular pressure (IOP) can be determined with an Alcon Pneumatonometer after light corneal anesthesia with 0.1% proparacaine. Eyes are washed with saline after each measurement. After a baseline IOP measurement, test compound is instilled in one 30 μL aliquot to the right eyes only of nine cynomolgus monkeys. Vehicle is instilled in the right eyes of six additional animals. Subsequent IOP measurements are taken at 1, 3, and 6 hours.

[3] = biological target: ROCK 1 (Homo sapiens, UniProt Q13464); assay: Rho kinase assay (IMAP ROCK-I kit, fluorescence polarization)
ROCK 1, sequence (Q13464 whole entry, species assumed): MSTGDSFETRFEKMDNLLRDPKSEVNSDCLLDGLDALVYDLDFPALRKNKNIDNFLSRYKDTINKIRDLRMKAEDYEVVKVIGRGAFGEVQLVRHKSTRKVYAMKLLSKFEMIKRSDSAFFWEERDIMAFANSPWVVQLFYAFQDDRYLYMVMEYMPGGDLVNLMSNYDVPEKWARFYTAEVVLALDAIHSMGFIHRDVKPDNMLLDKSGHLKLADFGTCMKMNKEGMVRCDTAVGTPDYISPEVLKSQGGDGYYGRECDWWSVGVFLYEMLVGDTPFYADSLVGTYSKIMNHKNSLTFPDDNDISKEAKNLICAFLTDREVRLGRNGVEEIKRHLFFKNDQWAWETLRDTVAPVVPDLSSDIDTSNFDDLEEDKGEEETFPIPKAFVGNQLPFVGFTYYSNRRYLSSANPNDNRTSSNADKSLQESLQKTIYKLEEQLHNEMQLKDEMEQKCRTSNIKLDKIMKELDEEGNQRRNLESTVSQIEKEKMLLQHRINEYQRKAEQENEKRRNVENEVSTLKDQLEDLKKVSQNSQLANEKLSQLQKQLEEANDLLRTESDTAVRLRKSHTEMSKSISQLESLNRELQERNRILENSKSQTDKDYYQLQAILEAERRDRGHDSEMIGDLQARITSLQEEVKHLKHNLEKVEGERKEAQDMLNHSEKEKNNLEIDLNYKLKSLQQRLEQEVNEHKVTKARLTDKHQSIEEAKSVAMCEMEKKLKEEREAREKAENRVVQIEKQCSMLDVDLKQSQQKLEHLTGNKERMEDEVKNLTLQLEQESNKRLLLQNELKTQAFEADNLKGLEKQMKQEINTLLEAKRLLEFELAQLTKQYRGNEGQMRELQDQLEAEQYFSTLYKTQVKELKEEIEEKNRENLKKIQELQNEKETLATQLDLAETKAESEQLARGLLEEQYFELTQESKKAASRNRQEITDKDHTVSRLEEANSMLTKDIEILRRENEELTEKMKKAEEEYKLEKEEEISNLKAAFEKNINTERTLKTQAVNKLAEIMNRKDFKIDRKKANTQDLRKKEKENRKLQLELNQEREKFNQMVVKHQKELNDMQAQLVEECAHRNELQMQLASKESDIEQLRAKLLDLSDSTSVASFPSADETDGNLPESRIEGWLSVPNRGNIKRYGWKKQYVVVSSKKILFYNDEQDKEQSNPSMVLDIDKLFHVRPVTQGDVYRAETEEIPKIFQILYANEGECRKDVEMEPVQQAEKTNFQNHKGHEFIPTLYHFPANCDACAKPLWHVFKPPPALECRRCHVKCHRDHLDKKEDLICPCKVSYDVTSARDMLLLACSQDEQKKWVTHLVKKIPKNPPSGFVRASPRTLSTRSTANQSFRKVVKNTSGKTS
Description: as §1

T1 sequence (O75116 whole entry, species assumed): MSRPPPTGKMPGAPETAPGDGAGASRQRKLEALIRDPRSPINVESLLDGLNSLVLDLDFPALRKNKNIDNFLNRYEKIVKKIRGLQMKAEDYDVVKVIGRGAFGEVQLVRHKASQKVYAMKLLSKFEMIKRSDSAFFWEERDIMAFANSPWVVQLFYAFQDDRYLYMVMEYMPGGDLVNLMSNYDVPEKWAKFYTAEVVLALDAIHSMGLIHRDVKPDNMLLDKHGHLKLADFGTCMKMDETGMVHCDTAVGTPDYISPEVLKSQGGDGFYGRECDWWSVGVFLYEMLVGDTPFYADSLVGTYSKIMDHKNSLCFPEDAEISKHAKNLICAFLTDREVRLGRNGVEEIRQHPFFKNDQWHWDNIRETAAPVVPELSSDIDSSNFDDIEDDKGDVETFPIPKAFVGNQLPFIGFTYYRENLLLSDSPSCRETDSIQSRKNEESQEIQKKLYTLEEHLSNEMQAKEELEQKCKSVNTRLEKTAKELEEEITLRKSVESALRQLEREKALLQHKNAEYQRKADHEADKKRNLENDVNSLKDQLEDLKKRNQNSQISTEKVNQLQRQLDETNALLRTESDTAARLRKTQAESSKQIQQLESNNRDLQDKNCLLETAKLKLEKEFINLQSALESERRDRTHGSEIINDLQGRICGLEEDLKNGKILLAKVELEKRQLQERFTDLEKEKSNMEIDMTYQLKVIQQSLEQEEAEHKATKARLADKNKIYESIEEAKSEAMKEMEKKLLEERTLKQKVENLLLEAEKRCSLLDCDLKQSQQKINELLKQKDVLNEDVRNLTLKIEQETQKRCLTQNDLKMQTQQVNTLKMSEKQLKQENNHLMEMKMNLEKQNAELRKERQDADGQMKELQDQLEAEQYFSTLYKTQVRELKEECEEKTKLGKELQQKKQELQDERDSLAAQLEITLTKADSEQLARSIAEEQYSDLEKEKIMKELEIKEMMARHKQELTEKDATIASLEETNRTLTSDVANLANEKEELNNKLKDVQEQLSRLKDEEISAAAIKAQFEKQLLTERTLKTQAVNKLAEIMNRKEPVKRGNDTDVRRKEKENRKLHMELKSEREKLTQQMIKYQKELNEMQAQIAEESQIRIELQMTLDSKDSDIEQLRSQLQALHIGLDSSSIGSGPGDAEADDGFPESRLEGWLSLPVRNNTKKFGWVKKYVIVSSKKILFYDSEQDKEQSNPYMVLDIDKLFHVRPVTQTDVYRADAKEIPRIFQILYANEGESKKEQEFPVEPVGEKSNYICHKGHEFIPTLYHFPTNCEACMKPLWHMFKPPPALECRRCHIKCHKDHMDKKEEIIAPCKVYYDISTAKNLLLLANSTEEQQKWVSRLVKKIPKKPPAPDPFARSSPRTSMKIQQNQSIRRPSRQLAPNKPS

Row | Compound | IC50 [1] | IC50 [3] | further results
1 | Cc1n[nH]c2ccc(-c3cnc4ccc(N5CCCNCC5)nn34)cc12 [Example 55, 3-(3-Methyl-1H-indazol-5-yl)-6-perhydro-1,4-diazepin-1-yl-imidazo[1,2-b]pyridazine trihydrochloride] | 0.011 µM | 0.0088 µM | IOP % Change ([2]; 1 hr after dosing): 1.0%; IOP Change mmHg ([2]; 1 hr after dosing): 1.0 mmHg; IOP % Change ([2]; 3 hrs after dosing): −21.6%; IOP Change mmHg ([2]; 3 hrs after dosing): −8.7 mmHg; IOP % Change ([2]; 6 hrs after dosing): −22.0%; IOP Change mmHg ([2]; 6 hrs after dosing): −8.9 mmHg
2 | CCCC/C=C/c1cnc2ccc(N[C@H]3CC[C@@H](O)CC3)nn12 [Example 50, Syn-(E)-4-(3-(Hex-1-enyl)imidazo[1,2-b]pyridazin-6-ylamino)cyclohexanol hydrochloride] | 17 µM | 6 µM | 
3 | CCCC/C=C/c1cnc2ccc(NCCCCO)nn12 [Example 37, (E)-4-(3-(Hex-1-enyl)imidazo[1,2-b]pyridazin-6-ylamino)butan-1-ol hydrochloride] | 13 µM | 23 µM | 
4 | CCCC/C=C/c1cnc2ccc(NCCN(CC)CC)nn12 [Example 40, (E)-N^1,N^1-Diethyl-N^2-(3-(hex-1-enyl)imidazo[1,2-b]pyridazin-6-yl)ethane-1,2-diamine hydrochloride] | > 100 µM | > 100 µM | 
5 | CCCC/C=C/c1cnc2ccc(NCCOC)nn12 [Example 7, (E)-3-(Hex-1-enyl)-N-(2-methoxyethyl)imidazo[1,2-b]pyridazin-6-amine fumarate] | 20 µM | 35 µM | 
6 | OCc1cnc2ccc(NCc3ccccn3)nn12 [Example 25, (6-(Pyridin-2-ylmethylamino)imidazo[1,2-b]pyridazin-3-yl)methanol hydrochloride] | > 100 µM | > 100 µM | 
7 | Clc1cnc2ccc(NCc3ccccn3)nn12 [Example 13, 3-Chloro-N-(pyridin-2-ylmethyl)imidazo[1,2-b]pyridazin-6-amine] | 17 µM | 25 µM | 
8 | c1cncc(-c2cnc3ccc(N4CCCNCC4)nn23)c1 [Example 57, 6-Perhydro-1,4-diazepin-1-yl-3-pyridin-3-yl-imidazo[1,2-b]pyridazine trihydrochloride] | 23 µM | 63 µM | 
9 | COc1ccc(-c2cnc3ccc(NCc4ccccn4)nn23)cc1 [Example 1, 3-(4-Methoxyphenyl)-N-(pyridin-2-ylmethyl)imidazo[1,2-b]pyridazin-6-amine] | 69 µM | 17 µM | 
10 | CCCC/C=C/c1cnc2ccc(NCCCCN(C)C)nn12 [Example 46, (E)-N^1-(3-(Hex-1-enyl)imidazo[1,2-b]pyridazin-6-yl)-N^4,N^4-dimethylbutane-1,4-diamine] | 8.2 µM | 5 µM | 
11 | CCOCc1cnc2ccc(NCCCN3CCOCC3)nn12 [Example 31, 3-(Ethoxymethyl)-N-(3-morpholinopropyl)imidazo[1,2-b]pyridazin-6-amine hydrocloride] | > 100 µM | > 100 µM | 
12 | CCCCCCc1cnc2ccc(NCc3ccccn3)nn12 [Example 29, 3-Hexyl-N-(pyridin-2-ylmethyl)imidazo[1,2-b]pyridazin-6-amine hydrochloride] | 17 µM | 42 µM | 
13 | c1cc(-c2cnc3ccc(N4CCCNCC4)nn23)ccn1 [Example 54, 6-(1,4-Diazepan-1-yl)-3-pyridin-4-yl-imidazo [1,2-b]pyridazine hydrochloride] | 0.33 µM | 0.93 µM | 

Source: US7820670B2 (Alcon Research, Ltd., priority 2006, dated 2010)
